Data on one compound can be found in patent publication US10064888B2, “Pectin based nanoparticles” (TECHNION RESEARCH & DEVELOPMENT FOUNDATION LTD., priority 2013, dated 2018).

The nature of this data set: Residual curcumin during simulated shelf life, absorbance at 415 nm. Format: physicochemical. To be noted: over a period of 11 days, with respect to time 0. As to the method:
FIG. 3. Is a graph depicting the SBP protective effect. Residual percentage of curcumin (with respect to time 0) during simulated shelf life, without and with protection by SBP. Curcumin was determined by absorbance at 415 nm (maximal absorbance of curcumin) as determined by a UV-Visible light spectrophotometer.

Molecules are shown by their SMILES.

As for `COc1cc(/C=C/C(=O)CC(=O)/C=C/c2ccc(O)c(OC)c2)ccc1O` [curcumin], the “decrease of curcumin during simulated shelf life” value is reported as “approximately 40%”.
